Results from PMC5106290 (Bioorganic & medicinal chemistry, 2014).
Read-outs that look alike come from different tables or passages of the source.

Tests used:
L. i. chagasi = assay type: in vivo, Leishmania infantum chagasi; conditions: infected BALB/c mice
RAW 264.7 cells = assay type: cell-based, murine; conditions: Table 1 and text, 48 h, MTT
[1] = test system: promastigote of Leishmania amazonensis; conditions: ref Medeiros et al. 21; cited from earlier work
[2] = 100 mg/kg IP once a day for 30 days
[3] = Glucantime 80 mg/Kg intra muscular once a day for 30 days

With `C=CCc1ccc(OC(C)=O)c(OC)c1` [Acetyl-Eugenol, O-acetyl-eugenol] the “Presence of amastigotes in spleen (immunohistochemistry, qualitative)” value (“Presence of amastigotes in spleen” below) (L. i. chagasi; [2]) was “could not be visualized”.

With `CC(=O)Oc1cc(C)ccc1C(C)C` [Acetyl-Thymol, O-acetyl-thymol] the “Amount of amastigotes seen in spleen stain” value (L. i. chagasi; [2]) was “regular amount of parasites” and the “Toxicity % RAW 264.7 cells survival at 100 μg/mL (±SD)” value (RAW 264.7 cells) was “not toxic”.

For `C=CCc1ccc(OC(=O)c2ccccc2)c(OC)c1` [Benzoyl-Eugenol, O-benzoyl-eugenol], the “Presence of amastigotes in spleen” value (L. i. chagasi; [2]) was “could not be visualized”.

For `Cc1ccc(C(C)C)c(OC(=O)c2ccccc2)c1` [Benzoyl-Thymol, O-benzoyl-thymol], the “Presence of amastigotes in spleen” value (L. i. chagasi; [2]) was “could not be visualized”.

For `Cc1ccc(C(C)C)c(O)c1` [Thymol], the “EC50 against promastigote of Leishmania amazonensis” value [1] is given as 19.4 µg/mL.

In the case of “antimoniate N-methyl glucamine [Glucantime, reference compound]”, the “Amount of amastigotes seen in spleen stain” value (L. i. chagasi; [3]) is reported as “only a few amastigotes” and the “Presence of amastigotes in spleen” value (L. i. chagasi; [3]) is reported as “visible”.
